Assay results: patent US11084795B2, “CFTR regulators and methods of use thereof” (The Regents of the University of California, priority 2015, dated 2021)
Where “and” joins values, the source holds several entries; their conditions need not be identical. Identical values can stand only once.

What was measured:
[1] = system: intestinal fluid secretion; test: Closed mid-jejunal loop model of intestinal fluid secretion; format: in vivo, mouse; conditions: 90 min
Experimental: (§1) Mice (wildtype or CF) were given access to 5% dextrose water but not solid food for 24 h before experiments. Mice were anesthetized with isoflurane and body temperature was maintained during surgery at 36-38° C. using a heating pad. A small abdominal incision was made to expose the small intestine, and closed mid-jejunal loops (length 2-3 cm) were isolated by sutures. Loops were injected with 100 μL vehicle alone or 100 μg CFTRact-J027 in vehicle. The abdominal incision was closed with sutures, and mice were allowed to recover from anesthesia. Intestinal loops were removed at 90 min and loop length and weight were measured to quantify fluid secretion. Intestinal absorption was measured in CF mice (to prevent secretion) as described above, except that the loops were removed at 0 or 30 min. Absorption was calculated as 1−(loop weight at 0 min−loop weight at 30 min)/loop weight at 0 min.
In vivo intestinal secretion and absorption. Mice (wildtype or CF) were given access to 5% dextrose water but not solid food for 24 h before experiments. […] Intestinal loops were removed at 90 min and loop length and weight were measured to quantify fluid secretion. Intestinal absorption was measured in CF mice (to prevent secretion) as described above, except that the loops were removed at 0 or 30 min. Absorption was calculated as 1−(loop weight at 0 min−loop weight at 30 min)/loop weight at 0 min. […]

[2] = system: intestinal fluid absorption; test: Closed mid-jejunal loop model of intestinal fluid absorption in cystic fibrosis mice; format: in vivo, mouse; conditions: 30 min
Experimental: as §1
In vivo intestinal secretion and absorption. Mice (wildtype or CF) were given access to 5% dextrose water but not solid food for 24 h before experiments. […] Intestinal loops were removed at 90 min and loop length and weight were measured to quantify fluid secretion. Intestinal absorption was measured in CF mice (to prevent secretion) as described above, except that the loops were removed at 0 or 30 min. Absorption was calculated as 1−(loop weight at 0 min−loop weight at 30 min)/loop weight at 0 min.

FRT cells = test: Alamar Blue cytotoxicity assay in FRT cells; format: cell-based, rat
[3] = Compound accumulation in systemic tissues after 14 days topical dosing; format: in vivo, mouse; conditions: two weeks of three times per day topical dosing
scopolamine-treated mice = test: Scopolamine-induced mouse model of acute constipation; format: in vivo
Experimental: Control mice were treated with vehicle only.

[4] = Stability in simulated gastric fluid (pH 2); format: physicochemical; conditions: 10 μM, pH 2, 37° C., 3 h
Experimental: To study gastric acid stability CFTRact-J027 (10 μM) was dissolved in simulated gastric fluid (0.2 NaCl, 0.7% HCl, pH 2) and incubated for 3 h at 37° C. To study in vitro metabolic stability CFTRact-J027 (5 μM) was incubated for specified times at 37° C. with human liver microsomes (1 mg protein/ml; Sigma-Aldrich) in potassium phosphate buffer (100 mM) containing 1 mM NADPH. After specified incubation periods the mixtures were chilled on ice, and 0.5 ml of ice-cold ethyl acetate was added. Samples were centrifuged for 15 min at 3000 rpm, the supernatants evaporated to dryness, and the residues were dissolved in 100 μL mobile phase (acetonitrile:water, 3:1) and assayed by liquid chromatography mass spectrometry (LC/MS). The solvent system consisted of a linear gradient from 5 to 95% acetonitrile over 16 min (0.2 ml/min flow). Mass spectra were acquired on a mass spectrometer (Waters 2695 and Micromass ZQ, Milford, Mass.) using electrospray (+) ionization, mass ranging from 100 to 1500 Da, cone voltage 40 V.

human wildtype CFTR [5] = biological target: T1, human wildtype CFTR (Homo sapiens, UniProt P13569); test: Patch-clamp (whole-cell and inside-out) in FRT cells expressing human wildtype CFTR; format: cell-based; set-up: expressed in transfected cells
From the text: The pipette (intracellular) solution contained (in mM): 120 CsCl, 10 TEA-Cl, 0.5 EGTA, 1 MgCl2, 10 Cs-HEPES, 40 mannitol, 1 ATP (7.4). For inside-out patch-clamp experiments the pipette solution contained (in mM): 150 N-methyl-D-glucamine chloride (NMDG-Cl), 3 CaCl2, 2 MgCl2, 10 Na-Hepes (pH 7.3). […] Pipette electrical resistance for both whole-cell and inside-out experiments was 3-5 MΩ. The protocol for stimulation consisted of 600-ms voltage steps from −100 to +100 mV in 20 mV increments starting from a holding potential of −60 mV. The interval between steps was 4 s. Membrane currents were filtered at 1 kHz and digitized at 5 kHz. Data were analyzed using the Igor software (Wavemetrics, Portland, Oreg.) with custom software kindly provided by Dr. Oscar Moran.

human wildtype CFTR [6] = biological target: T1, human wildtype CFTR; test: Short-circuit current (Isc) in FRT cells expressing human wild-type CFTR

T1 sequence (P13569 whole entry): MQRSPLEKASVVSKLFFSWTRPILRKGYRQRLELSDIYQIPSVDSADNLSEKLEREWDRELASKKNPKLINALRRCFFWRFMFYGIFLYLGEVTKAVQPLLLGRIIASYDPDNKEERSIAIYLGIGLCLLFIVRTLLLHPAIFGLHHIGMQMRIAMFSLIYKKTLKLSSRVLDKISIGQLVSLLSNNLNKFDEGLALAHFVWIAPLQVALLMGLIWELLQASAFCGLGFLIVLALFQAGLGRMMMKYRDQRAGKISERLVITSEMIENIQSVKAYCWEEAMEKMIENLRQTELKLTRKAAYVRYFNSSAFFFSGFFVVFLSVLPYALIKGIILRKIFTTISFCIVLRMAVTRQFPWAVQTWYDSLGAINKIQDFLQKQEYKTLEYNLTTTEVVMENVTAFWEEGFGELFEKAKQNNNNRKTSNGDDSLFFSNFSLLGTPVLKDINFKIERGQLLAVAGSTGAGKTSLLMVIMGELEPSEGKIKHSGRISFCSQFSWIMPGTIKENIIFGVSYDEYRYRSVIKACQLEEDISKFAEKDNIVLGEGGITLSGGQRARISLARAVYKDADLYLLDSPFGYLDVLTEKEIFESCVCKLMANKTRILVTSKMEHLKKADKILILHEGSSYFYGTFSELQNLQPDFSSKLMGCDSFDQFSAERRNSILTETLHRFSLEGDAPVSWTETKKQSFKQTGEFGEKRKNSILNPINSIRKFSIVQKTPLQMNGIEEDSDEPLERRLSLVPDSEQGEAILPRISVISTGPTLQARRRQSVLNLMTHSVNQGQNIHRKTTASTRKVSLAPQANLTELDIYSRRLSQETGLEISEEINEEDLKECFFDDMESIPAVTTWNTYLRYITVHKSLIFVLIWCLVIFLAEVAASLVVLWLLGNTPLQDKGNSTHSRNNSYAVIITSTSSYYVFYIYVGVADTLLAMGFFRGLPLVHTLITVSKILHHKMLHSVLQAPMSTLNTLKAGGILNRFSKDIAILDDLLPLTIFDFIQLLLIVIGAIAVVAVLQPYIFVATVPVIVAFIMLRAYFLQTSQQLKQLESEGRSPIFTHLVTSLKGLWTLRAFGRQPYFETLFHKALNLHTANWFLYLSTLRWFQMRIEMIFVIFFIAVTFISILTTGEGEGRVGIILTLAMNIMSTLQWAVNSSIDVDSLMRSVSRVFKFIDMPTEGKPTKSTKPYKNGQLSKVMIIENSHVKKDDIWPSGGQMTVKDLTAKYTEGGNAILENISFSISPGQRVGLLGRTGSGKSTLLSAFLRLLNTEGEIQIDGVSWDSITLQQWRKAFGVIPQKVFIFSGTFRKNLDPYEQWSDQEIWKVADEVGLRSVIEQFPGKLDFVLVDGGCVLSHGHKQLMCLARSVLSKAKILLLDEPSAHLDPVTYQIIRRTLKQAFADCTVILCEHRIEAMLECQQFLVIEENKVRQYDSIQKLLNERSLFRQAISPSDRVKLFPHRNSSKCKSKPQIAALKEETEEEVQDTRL

SMILES: Nc1ccc([N+](=O)[O-])cc1-c1nc2ccccc2n(Cc2ccccc2)c1=O [CFTRact-J027, 3-(2-amino-5-nitrophenyl)-1-benzylquinoxalin-2(1H)-one]
- intestinal fluid accumulation compared to equal doses of lubiprostone or linaclotide ([1]; 100 μg per loop): Significantly greater intestinal fluid accumulation
- loop fluid secretion in cystic fibrosis mice ([1]; cystic fibrosis mice): without effect
- intestinal fluid absorption [2]: did not affect intestinal fluid absorption
- cytotoxicity (Alamar Blue) (FRT cells; 20 μM): did not show cytotoxicity
- in vitro cytotoxicity (FRT cells; 25 μM): did not show significant in vitro cytotoxicity
- non-cytotoxic concentration relative to EC50 for CFTR activation (FRT cells; 25 μM): > 100 fold
- in vitro cytotoxicity (FRT cells; up to 100 μM, 1 or 24 h): no appreciable in vitro cytotoxicity
- amount in mouse blood, brain, liver and kidney (limit of detection) [3]: < 700 fmol
- efficacy, ip after development of constipation (scopolamine-treated mice; 10 mg/kg ip 1 h after loperamide or scopolamine): effective
- stool parameters, oral 1 h prior to scopolamine (scopolamine-treated mice; 10 mg/kg po): normalization of stool parameters
- efficacy, oral after development of constipation (scopolamine-treated mice; 10 mg/kg po 1 h after loperamide or scopolamine): not effective
- stool output, pellet number and water content compared to lubiprostone and linaclotide (scopolamine-treated mice; J027 10 mg/kg vs 0.5 mg/kg comparators, oral): more effective in increasing stool output, pellet number and water content
- degradation in simulated gastric fluid [4]: no compound degradation
- increase of CFTR activity, whole-cell recording (human wildtype CFTR [5]; 1 μM after 150 nM forskolin): more than four-fold
- CFTR activity, inside-out patch (human wildtype CFTR [5]; 1 μM after submaximal ATP and catalytic subunit of PKA): strongly increased CFTR activity
- CFTR activation at 3 μM (human wildtype CFTR [6]; 3 μM): nearly full activation
- EC50 (human wildtype CFTR [6]; EC50 for CFTR activation, FRT cells, wild-type CFTR, short-circuit current): ~200 nM and 200 nM
- extent of CFTR activation (Isc) (human wildtype CFTR [6]; forskolin produced little or no further increase in current): fully activated CFTR
